From US6387397B1, “Polymerized liposomes targeted to M cells and useful for oral or mucosal drug delivery” (Massachusetts Institute of Technology, priority 1997, dated 2002)

Assay: In vivo oral insulin delivery; blood glucose level
Parameters: species or system Balb/C mice
Details: mice, single oral dose, 1 to 3.5 hours
Experimental: Balb/C mice of female sex were fasted for 12 hours before experiment. Each mouse wag savaged 200 μL of each preparation as described in Table 9.3. Food was restored immediately after administration. Blood samples for glucose determination was drawn from mouse tail vein under methoxyflurane anesthesia. Samples were drawn right before the administration (0 hour), as well as at 1, 2, 3 and 3.5 hours post administration of each preparation. Blood glucose level was measured using a One Touch® Profile Diabetes Tracking system (Lifescan, Milpitas, Calif.) with One Touch® Test strips, by applying blood to form a round drop which completely covered the test spot on the test strip. Readings (in mg/dL) were obtained from the meter indicating the blood glucose level detected.
Blood glucose level at zero hour was taken at 100 percent. Blood glucose levels after the oral administration were normalized by the level at zero hour, and the results were plotted in FIG. 9. […] This was due to the degradation of the unprotected peptide in the gastrointestinal tract by the digestive enzymes. […] This is consistent with the fact that unpolymerized liposomes are not stable in the gastrointestinal tract, where they are dissolved by the biological detergents. The dissolution results in the exposure of liposomal contents and therefore the loss of liposome protective functions. […]

For “insulin in solution: human insulin (regular) administered orally in solution”, the “change in blood glucose level after oral administration” value was “did not result in any significant change”.
